Tests used:
[1] = test system: DU-145; experiment: Growth inhibition of human DU145 cells after 48 hrs by MTT assay; type: functional, cell-based; conditions: DU-145, 48 h
[2] = test system: HepG2; experiment: Growth inhibition of human HepG2 cells after 48 hrs by MTT assay; type: functional, cell-based; conditions: HepG2, 48 h
[3] = test system: HEK293; experiment: Cytotoxicity against HEK293 cells up to 10 uM after 48 hrs by MTT assay; type: cell-based; conditions: human, hek293, 48 h
[4] = test system: A549; experiment: Growth inhibition of human A549 cells after 48 hrs by MTT assay; type: functional, cell-based; conditions: A549, 48 h
[5] = target: 3',5'-cyclic-AMP phosphodiesterase 4B (Homo sapiens) (UniProt Q07343); experiment: Inhibition of recombinant His-tagged PDE4B1 (unknown origin) expressed in baculovirus infected sf9 cells at 10 uM using cAMP as substrate preincubated for 15 mins followed by cAMP addition measured after 1 hr by PDE light HTS assay relative to control
[6] = test system: HeLa; experiment: Growth inhibition of human HeLa cells after 48 hrs by MTT assay; type: functional, cell-based
[7] = target: Prostaglandin G/H synthase 2 (Homo sapiens) (UniProt P35354); experiment: Inhibition of human COX2 expressed in baculovirus infected sf9 microsomes at 10 uM using arachidonic acid as substrate preincubated for 15 mins followed by substrate addition by TMPD oxidation based assay relative to control
Prostaglandin G/H synthase 2 (Homo sapiens), sequence (P35354 whole entry, looked up): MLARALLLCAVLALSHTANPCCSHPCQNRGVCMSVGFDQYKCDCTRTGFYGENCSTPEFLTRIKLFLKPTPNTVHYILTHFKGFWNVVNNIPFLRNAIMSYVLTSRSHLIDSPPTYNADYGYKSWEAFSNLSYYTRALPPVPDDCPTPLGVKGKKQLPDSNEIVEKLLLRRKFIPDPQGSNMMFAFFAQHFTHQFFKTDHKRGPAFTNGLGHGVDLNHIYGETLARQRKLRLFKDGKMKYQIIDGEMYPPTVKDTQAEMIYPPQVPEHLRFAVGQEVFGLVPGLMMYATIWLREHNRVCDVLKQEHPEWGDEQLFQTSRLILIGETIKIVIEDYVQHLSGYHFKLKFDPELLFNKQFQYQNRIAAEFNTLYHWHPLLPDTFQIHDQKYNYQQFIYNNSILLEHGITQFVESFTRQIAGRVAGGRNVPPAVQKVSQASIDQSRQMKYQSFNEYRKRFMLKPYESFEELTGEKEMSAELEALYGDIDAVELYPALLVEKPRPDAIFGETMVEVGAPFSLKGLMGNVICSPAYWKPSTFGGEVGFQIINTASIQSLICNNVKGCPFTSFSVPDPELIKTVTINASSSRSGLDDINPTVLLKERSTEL

3',5'-cyclic-AMP phosphodiesterase 4B (Homo sapiens), sequence (Q07343 whole entry): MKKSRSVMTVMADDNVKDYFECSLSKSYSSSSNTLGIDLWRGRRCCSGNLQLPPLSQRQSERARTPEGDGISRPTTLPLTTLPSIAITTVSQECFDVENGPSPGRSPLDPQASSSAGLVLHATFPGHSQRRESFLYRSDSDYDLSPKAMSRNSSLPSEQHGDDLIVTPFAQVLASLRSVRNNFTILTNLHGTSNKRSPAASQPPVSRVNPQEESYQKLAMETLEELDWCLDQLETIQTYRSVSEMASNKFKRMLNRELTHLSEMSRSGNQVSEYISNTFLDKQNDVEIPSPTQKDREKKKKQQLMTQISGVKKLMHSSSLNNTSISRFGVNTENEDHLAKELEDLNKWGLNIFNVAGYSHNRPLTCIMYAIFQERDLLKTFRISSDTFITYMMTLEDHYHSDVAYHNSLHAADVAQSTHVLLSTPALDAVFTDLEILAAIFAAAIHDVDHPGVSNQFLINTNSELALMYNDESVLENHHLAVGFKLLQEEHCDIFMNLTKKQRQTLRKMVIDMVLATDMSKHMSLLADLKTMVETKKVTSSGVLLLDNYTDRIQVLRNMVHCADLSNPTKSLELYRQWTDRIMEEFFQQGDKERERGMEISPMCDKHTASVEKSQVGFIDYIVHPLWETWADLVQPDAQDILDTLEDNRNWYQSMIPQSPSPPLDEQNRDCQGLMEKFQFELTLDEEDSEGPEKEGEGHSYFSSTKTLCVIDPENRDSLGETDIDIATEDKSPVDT

| SMILES | IC50 [1] [µM] | IC50 [2] [µM] | Activity [3] | IC50 [4] [µM] | inhibition [5] [%] | IC50 [6] [µM] | inhibition [7] [%] |
| --- | --- | --- | --- | --- | --- | --- | --- |
| Cc1ccc(-c2cn(-c3ccc(NS(C)(=O)=O)c(Oc4ccccc4)c3)nn2)cc1 | 11.2 | 18.3 | Non-Toxic |  |  |  |  |
| Cc1cc(OCc2cn(-c3ccc(NS(C)(=O)=O)c(Oc4ccccc4)c3)nn2)ccc1Cl | 5.9 | 9.8 | Non-Toxic | 6.7 | 67.5 | 7.9 |  |
| CS(=O)(=O)Nc1ccc(-n2cc(-c3ccccc3)nn2)cc1Oc1ccccc1 | 14.2 | 13.6 | Non-Toxic | 29.9 |  | 21.9 |  |
| CS(=O)(=O)Nc1ccc(-n2cc(COc3ccc([N+](=O)[O-])cc3)nn2)cc1Oc1ccccc1 | 7.2 |  | Non-Toxic | 6.6 | 70.2 |  |  |
| CS(=O)(=O)Nc1ccc(-n2cc(COc3ccc4ccccc4c3)nn2)cc1Oc1ccccc1 | 9.1 | 19.5 | Non-Toxic | 8.3 |  | 12.8 |  |
| CS(=O)(=O)Nc1ccc([N+](=O)[O-])cc1Oc1ccccc1 [NIMESULIDE] |  | 35.2 |  | 67.8 | 52 |  |  |
| Cc1ccc(OCc2cn(-c3ccc(NS(C)(=O)=O)c(Oc4ccccc4)c3)nn2)cc1 | 8.2 | 13 | Non-Toxic | 8 |  | 15.8 |  |
| CS(=O)(=O)Nc1ccc(-n2cc(COc3ccc(Cl)cc3)nn2)cc1Oc1ccccc1 | 6.4 | 7.5 | Non-Toxic | 7.1 | 62.8 | 7.8 | 23 |
| CS(=O)(=O)Nc1ccc(-n2cc(COc3ccccc3Cl)nn2)cc1Oc1ccccc1 | 21.1 | 25.3 | Non-Toxic | 53.8 |  | 38.6 |  |

— ChEMBL document CHEMBL4041539, “1,2,3-Triazole-nimesulide hybrid: Their design, synthesis and evaluation as potential anticancer agents” (Bioorg Med Chem Lett, 2017)
